Results published in patent publication US12331054B2, “Perk inhibiting imidazolopyrazine compounds” (HiberCell, Inc., priority 2019, dated 2025).

Key:
[1] = target: Recombinant human EIF2AK3 (PERK) catalytic domain (amino acids 536-1116) (Homo sapiens (Human), UniProt Q9NZJ5); assay: PERK In Vitro Activity Assay (isolated), TR-FRET kinase assay; conditions: isolated PERK enzyme, 1.5 μM ATP, read-out: Biochemical IC50
In short: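 Recombinant PERK catalytic domain was incubated with 100–200 nM GFP-eIF2a substrate in 50 mM HEPES pH 7.5, 10 mM MgCl2, 1.0 mM EGTA and 0.01% Brij-35 for 45 min at room temperature. After a 10 mM EDTA stop, 2 nM Tb-anti-phospho-eIF2a was added for 90 min, and IC50 was fitted from TR-FRET ratios by 4-parameter logistic regression.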

[2] = tested on: eIF2α in HEK293-EGFP-eIF2α cells; assay: PERK Cellular Assay (HEK293-EGFP-eIF2α cells, tunicamycin-induced ER stress, TR-FRET); format: cell-based; conditions: tunicamycin 2 hours
In short: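 Cells pre-incubated with inhibitor 30 min at 37 °C, then ER stress induced with […] tunicamycin for 2 h. TR-FRET read on lysates; ratio normalized to DMSO control as percent inhibition over a 10-point, 3-fold dilution series; IC50 from 4-parameter logistic fit.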

Chain of Recombinant human EIF2AK3 (PERK) catalytic domain (amino acids 536-1116) (Q9NZJ5 536-1116): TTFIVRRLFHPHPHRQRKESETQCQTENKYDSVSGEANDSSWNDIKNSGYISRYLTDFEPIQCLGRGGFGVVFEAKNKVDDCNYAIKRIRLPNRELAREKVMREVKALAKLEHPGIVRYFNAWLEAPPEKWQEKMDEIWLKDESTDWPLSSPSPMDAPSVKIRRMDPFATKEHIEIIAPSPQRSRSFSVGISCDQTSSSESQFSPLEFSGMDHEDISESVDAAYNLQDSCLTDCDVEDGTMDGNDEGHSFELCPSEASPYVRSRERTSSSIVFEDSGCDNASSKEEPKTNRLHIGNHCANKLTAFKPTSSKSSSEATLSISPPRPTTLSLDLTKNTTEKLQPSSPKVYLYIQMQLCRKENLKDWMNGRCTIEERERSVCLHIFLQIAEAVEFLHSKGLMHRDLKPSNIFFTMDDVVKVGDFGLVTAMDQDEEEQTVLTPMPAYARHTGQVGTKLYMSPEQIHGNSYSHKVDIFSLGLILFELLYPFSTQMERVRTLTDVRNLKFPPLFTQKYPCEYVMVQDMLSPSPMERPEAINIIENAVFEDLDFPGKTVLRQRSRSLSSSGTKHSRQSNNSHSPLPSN

Row | Structure (SMILES) | IC50 [1] [nM] | IC50 ([2]; 2 h) [nM] | IC50 [2] [nM]
1 | [2H]C([2H])([2H])c1nc(-c2ccc(NC(=O)C(O)c3cccc(C(F)(F)F)c3)cc2F)c2c(N)ncc(Cl)n12 (centres unmarked) [Example 100, N-[4-[8-amino-5-chloro-3-(trideuteriomethyl)imidazo[1,5-a]pyrazin-1-yl]-3-fluoro-phenyl]-2-hydroxy-2-[3-(trifluoromethyl)phenyl]acetamide] | 1 to 25 | 1 to 25 | –
2 | [2H]C([2H])([2H])c1nc(-c2ccc(NC(=O)C(O)c3cc(F)cc(C(F)(F)F)c3)c(F)c2F)c2c(N)ncc(Cl)n12 (centres unmarked) [Example 164, N-[4-[8-amino-5-chloro-3-(trideuteriomethyl)imidazo[1,5-a]pyrazin-1-yl]-2,3-difluoro-phenyl]-2-[3-fluoro-5-(trifluoromethyl)phenyl]-2-hydroxy-acetamide] | 1 to 25 | – | 1 to 25
3 | [2H]C([2H])([2H])c1nc(-c2ccc(NC(=O)C(O)c3cccc(F)c3)c(F)c2F)c2c(N)ncc(Cl)n12 (centres unmarked) [Example 136, N-[4-[8-amino-5-chloro-3-(trideuteriomethyl)imidazo[1,5-a]pyrazin-1-yl]-2,3-difluoro-phenyl]-2-(3-fluoro-phenyl)-2-hydroxy-acetamide] | 1 to 25 | – | 1 to 25
4 | [2H]C([2H])([2H])c1nc(-c2ccc(NC(=O)C(O)c3cccc(Cl)c3)cc2F)c2c(N)ncc(C(F)(F)F)n12 (centres unmarked) [Example 82, N-[4-[8-amino-3-(trideuteriomethyl)-5-(trifluoromethyl)imidazo[1,5-a]pyrazin-1-yl]-3-fluoro-phenyl]-2-(3-chlorophenyl)-2-hydroxy-acetamide] | 1 to 25 | – | 1 to 25
5 | Cc1cc(NC(=O)C(O)c2cccc(F)c2)c(F)cc1-c1nc(C)n2c(C)cnc(N)c12 (centres unmarked) [Example 65, N-(4-(8-amino-3,5-dimethylimidazo [1,5-a]pyrazin-1-yl)-2-fluoro-5-methylphenyl)-2-(3-fluorophenyl)-2-hydroxy-acetamide] | 1 to 25 | – | 1 to 25
6 | [2H]C([2H])([2H])c1nc(-c2ccc(NC(=O)C(O)c3cc(F)cc(C(F)(F)F)c3)c(F)c2F)c2c(N)ncc(C(F)(F)F)n12 (centres unmarked) [Example 163, N-[4-[8-amino-3-(trideuteriomethyl)-5-(trifluoromethyl)imidazo[1,5-a]pyrazin-1-yl]-2,3-difluoro-phenyl]-2-[3-fluoro-5-(trifluoromethyl)phenyl]-2-hydroxy-acetamide] | 251 to 500 | – | 251 to 500
7 | [2H]C([2H])([2H])c1nc(-c2ccc(NC(=O)C(O)c3cccc(C(F)(F)F)c3)cc2C)c2c(N)nc(C)cn12 (centres unmarked) [Example 14, N-[4-[8-amino-6-methyl-3-(trideuteriomethyl)imidazo[1,5-a]pyrazin-1-yl]-3-methyl-phenyl]-2-hydroxy-2-[3-(trifluoromethyl)phenyl]acetamide] | 1 to 25 | – | 26 to 50
8 | [2H]C([2H])([2H])c1nc(-c2ccc(NC(=O)C(O)c3cccc(F)c3)nc2C)c2c(N)nc(C)cn12 (centres unmarked) [Example 170, N-[5-[8-amino-6-methyl-3-(trideuteriomethyl)imidazo[1,5-a]pyrazin-1-yl]-6-methyl-2-pyridyl]-2-(3-fluorophenyl)-2-hydroxy-acetamide] | 1 to 25 | – | 101 to 250
9 | Cc1cccc(C(O)C(=O)Nc2ccc(-c3nc(C)n4c(C)cnc(N)c34)c(F)c2)c1 (centres unmarked) [Example 88, N-(4-(8-amino-3,5-dimethylimidazo [1,5-a]pyrazin-1-yl)-3-fluoro-phenyl)-2-hydroxy-2-(m-tolyl)acetamide] | 1 to 25 | – | 1 to 25
10 | [2H]C([2H])([2H])c1nc(-c2ccc(NC(=O)C(O)c3cccc(C(F)(F)F)c3)cc2F)c2c(N)ncc(C)n12 (centres unmarked) [Example 95, N-[4-[8-amino-5-methyl-3-(trideuteriomethyl)imidazo[1,5-a]pyrazin-1-yl]-3-fluoro-phenyl]-2-hydroxy-2-[3-(trifluoromethyl)phenyl]acetamide] | 1 to 25 | – | 51 to 100
11 | [2H]C([2H])([2H])c1nc(-c2ccc(NC(=O)C(O)c3cccc(C)c3)cc2F)c2c(N)ncc(C)n12 (centres unmarked) [Example 91, N-[4-[8-amino-5-methyl-3-(trideuteriomethyl)imidazo[1,5-a]pyrazin-1-yl]-3-fluoro-phenyl]-2-hydroxy-2-(m-tolyl)acetamide] | 1 to 25 | – | 51 to 100
12 | [2H]C([2H])([2H])c1nc(-c2ccc(NC(=O)C(O)c3cc(F)cc(C(F)(F)F)c3)cc2C)c2c(N)ncc(C)n12 (centres unmarked) [Example 54, N-[4-[8-amino-5-methyl-3-(trideuteriomethyl)imidazo[1,5-a]pyrazin-1-yl]-3-methyl-phenyl]-2-[3-fluoro-5-(trifluoromethyl)phenyl]-2-hydroxy-acetamide] | 1 to 25 | – | 1 to 25
13 | Cc1cc(NC(=O)C(O)c2cccc(F)c2)ccc1-c1nc(C)n2ccnc(N)c12 (centres unmarked) [Example 1, N-(4-(8-amino-3-methylimidazo[1,5-a]pyrazin-1-yl)-3-methylphenyl)-2-(3-fluorophenyl)-2-hydroxyacetamide] | 1 to 25 | – | 26 to 50
14 | [2H]C([2H])([2H])c1nc(-c2ccc(NC(=O)C(O)c3cccc(Cl)c3)c(F)c2F)c2c(N)ncc(Cl)n12 (centres unmarked) [Example 145, N-[4-[8-amino-5-chloro-3-(trideuteriomethyl)imidazo[1,5-a]pyrazin-1-yl]-2,3-difluoro-phenyl]-2-(3-chlorophenyl)-2-hydroxy-acetamide] | 1 to 25 | – | 1 to 25
15 | [2H]C([2H])([2H])c1nc(-c2ccc(NC(=O)C(O)c3cc(F)cc(C(F)(F)F)c3)cc2C)c2c(N)ncc(C)n12 (centres unmarked) [Example 55, N-[4-[8-amino-5-methyl-3-(trideuteriomethyl)imidazo[1,5-a]pyrazin-1-yl]-3-methyl-phenyl]-2-[3-fluoro-5-(trifluoromethyl)phenyl]-2-hydroxy-acetamide] | 1 to 25 | – | 101 to 250
16 | [2H]C([2H])([2H])c1nc(-c2ccc(NC(=O)C(O)c3cc(F)cc(F)c3)cc2F)c2c(N)ncc(C)n12 (centres unmarked) [Example 104, N-[4-[8-amino-5-methyl-3-(trideuteriomethyl)imidazo[1,5-a]pyrazin-1-yl]-3-fluoro-phenyl]-2-(3,5-difluoro-phenyl)-2-hydroxy-acetamide] | 1 to 25 | – | 1 to 25
17 | Cc1cc(F)cc(C(O)C(=O)Nc2ccc(-c3nc(C)n4c(C)cnc(N)c34)c(C)c2)c1 (centres unmarked) [Example 63, N-(4-(8-amino-3,5-dimethylimidazo [1,5-a]pyrazin-1-yl)-3-methyl-phenyl)-2-(3-fluoro-5-methylphenyl)-2-hydroxyacetamide] | 1 to 25 | – | 51 to 100
18 | Cc1cc(NC(=O)C(O)c2cccc(Cl)c2)ccc1-c1nc(C)n2c(C)cnc(N)c12 (centres unmarked) [Example 39, N-(4-(8-amino-3,5-dimethylimidazo [1,5-a]pyrazin-1-yl)-3-methyl-phenyl)-2-(3-chlorophenyl)-2-hydroxyacetamide] | 1 to 25 | – | 101 to 250
19 | Cc1cnc(N)c2c(-c3ccc(NC(=O)C(O)c4cccc(F)c4)c(F)c3)nc(C)n12 (centres unmarked) [Example 124, N-(4-(8-amino-3,5-dimethyl-imidazo[1,5-a]pyrazin-1-yl)-2-fluorophenyl)-2-(3-fluorophenyl)-2-hydroxy-acetamide] | 26 to 50 | – | 501 to 1000
20 | [2H]C([2H])([2H])c1nc(-c2ccc(NC(=O)C(O)c3cccc(Cl)c3)cc2F)c2c(N)nc(C)cn12 (centres unmarked) [Example 80, N-[4-[8-amino-6-methyl-3-(trideuteriomethyl)imidazo[1,5-a]pyrazin-1-yl]-3-fluoro-phenyl]-2-(3-chlorophenyl)-2-hydroxy-acetamide] | 1 to 25 | – | 1 to 25
21 | [2H]C([2H])([2H])c1nc(-c2ccc(NC(=O)C(O)c3cc(F)cc(F)c3)cc2C)c2c(N)ncc(C)n12 (centres unmarked) [Example 50, N-[4-[8-amino-5-methyl-3-(trideuteriomethyl)imidazo[1,5-a]pyrazin-1-yl]-3-methyl-phenyl]-2-(3,5-difluoro-phenyl)-2-hydroxy-acetamide] | 1 to 25 | – | 1 to 25
22 | [2H]C([2H])([2H])c1nc(-c2ccc(NC(=O)C(O)c3cccc(C(F)(F)F)c3)cc2C)c2c(N)ncc(C)n12 (centres unmarked) [Example 17, N-[4-[8-amino-5-methyl-3-(trideuteriomethyl)imidazo[1,5-a]pyrazin-1-yl]-3-methyl-phenyl]-2-hydroxy-2-[3-(trifluoromethyl)phenyl]acetamide] | 1 to 25 | – | 101 to 250
23 | [2H]C([2H])([2H])c1nc(-c2ccc(NC(=O)C(O)c3cccc(Cl)c3)cc2C)c2c(N)ncc(Cl)n12 (centres unmarked) [Example 43, N-[4-[8-amino-5-chloro-3-(trideuteriomethyl)imidazo[1,5-a]pyrazin-1-yl]-3-methyl-phenyl]-2-(3-chlorophenyl)-2-hydroxy-acetamide] | 1 to 25 | – | 26 to 50
24 | [2H]C([2H])([2H])c1nc(-c2ccc(NC(=O)C(O)c3cccc(C(F)(F)F)c3)c(F)c2F)c2c(N)nc(C)cn12 (centres unmarked) [Example 151, N-[4-[8-amino-6-methyl-3-(trideuteriomethyl)imidazo[1,5-a]pyrazin-1-yl]-2,3-difluoro-phenyl]-2-hydroxy-2-[3-(trifluoromethyl)phenyl]acetamide] | 51 to 100 | – | 251 to 500
25 | [2H]C([2H])([2H])c1nc(-c2ccc(NC(=O)C(O)c3cccc(Cl)c3)cc2C)c2c(N)nc(C)cn12 (centres unmarked) [Example 35, N-[4-[8-amino-6-methyl-3-(trideuteriomethyl)imidazo[1,5-a]pyrazin-1-yl]-3-methyl-phenyl]-2-(3-chlorophenyl)-2-hydroxy-acetamide] | 101 to 250 | – | 1000 to 2000
